Laboratory results published in PMC5646234 (ChemPhotoChem, 2017).

Molecular target: T1, Saposin B (SapB) (Homo sapiens, UniProt P07602)
T1 sequence (P07602 195-273): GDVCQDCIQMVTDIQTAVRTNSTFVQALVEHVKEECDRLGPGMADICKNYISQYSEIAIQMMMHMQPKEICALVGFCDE
Test: tyrosine fluorescence quenching titration
Format: binding

Kd: 25 µM
SMILES: CC1=C(/C=C/C(C)=C/C=C/C(C)=C/c2cc(/C=C/C=C(C)/C=C/C3=C(C)CCCC3(C)C)cc[n+]2CCO)C(C)(C)CCC1 [A2E, 2-[(1E,3E,5E,7E)-2,5-dimethyl-8-(2,6,6-trimethyl-cyclohex-1-en-1-yl)octa-1,3,5,7-tetraen-1-yl]-1-(2-hydroxyethyl)-4-[(1E,3E,5E)-4-methyl-6-(2,6,6-trimethylcyclohex-1-en-1-yl)hexa-1,3,5-trien-1-yl]pyridinium]
